We go through 1 molecule from patent US10816552B2 (The Governing Council of the University of Toronto, priority 2014, dated 2020).

The test system of one data set is HCT116 cells. Briefly: Mass cytometry hypoxia labelling (130Te signal). The class given is cell-based. The text has this:
FIGS. 4A-E show a schematic representation and density maps and plots. FIG. 4A is a schematic representation of Telox/Telox2 cell labelling for analysis via mass cytometry on a second-generation CyTOF instrument. FIG. 4b) is a density map of signal event length vs. ^130Te signal (arbitrary units). FIG. 4c) is a density plot output from the top-right gate in b) of ^193Ir signal (arbitrary units) vs. ^103Rh signal (arbitrary units). More than 93% of detected events fall in the square gate. FIG. 4d) is a density plot output from the bottom-left gate in b) of ^193Ir signal (arbitrary units) vs. ^103Rh signal (arbitrary units). More than 89% of detected events fall in the square gate. FIG. 4e) is a population histograms of cell ^130Te content (arbitrary units). Oxygen concentrations are listed as numerical percentages, P=Pimonidazole (100 μM). Blue and red histograms are Pimonidazole-negative controls. Orange and green histograms are Pimonidazole- positive competition experiments. Note: warmer colors in density plots indicate higher cell population density.
FIGS. 8A and B show a) the absolute ^130Te signal as a function of concentration as determined by mass cytometry analysis of HCT116 cells incubated with the exemplary compound, Telox-2, for 3 hours in either near-anoxic (˜0% O2), hypoxic (˜1% O2) or normoxic (21% O2) atmosphere; and b) the signal-to-noise (fold-change) representation of the data presented in part a.
FIGS. 9A-D show a) Absolute ^130Te signal as a function of time as determined by mass cytometry analysis of HCT116 cells incubated with 10 μM of the exemplary compound,Telox-2 (constant exposure), in either near-anoxic (˜0% O2), hypoxic (˜1% O2) or normoxic (21% O2) atmosphere; b) the signal-to-noise (fold-change) representation of the data presented in part a; and c) the absolute ^130Te signal as a function of time as determined by mass cytometry analysis of HCT116 cells incubated with 10 μM Telox-2 for 3 hours followed by replacement of Telox-2-containing media with fresh media in either near-anoxic (˜0% O2), hypoxic (˜1% O2) or normoxic (21% O2) atmosphere; and d) the signal-to-noise (fold-change) representation of the data presented in part c.
HCT116 (500,000) cells were seeded in 60 mm plastic petri dishes (Corning Inc., NY) and incubated for 24 h at 37° C., 21% O2/5% CO2. The cells were transferred to hypoxia chambers (H35/H85 hypoxia workstation, Don Whitley Scientific) maintained at 1%/0.2% or <0.02% O2 for 3 h. Hypoxia experiments (<0.02% O2) were performed by seeding the cells in 60 mm glass plates (Corning Inc., NY).
HCT 116 cells (see sections i and ii) were incubated in media containing Telox or Telox2 (100 μM, added as a neat solution in sterile DMSO; final [DMSO]=0.1%) for 3 hours under atmosphere containing an appropriate concentration of O2. Following incubation, the media was removed, cells were washed with sterile PBS, and then separated from the incubation plate via trypsinization (37° C., 10 min) and gentle scraping. The cell suspension was pelleted and resuspended in PBS containing β-ME (1.0 mL, 100 mM). Cells were pelleted, resuspended in PBS (900 μL, no β-ME), and fixed with formaldehyde (100 μL, 37% solution) for 25 minutes. Following fixation, cells were pelleted, resuspended in PBS containing β-ME (1.0 mL, 100 mM), and pelleted once again. Cells were then resuspended in PBS ([…], no β-ME) and incubated with either the Ir-containing nucleic acid intercalator (hypoxic cells) or the Rh containing nucleic acid intercalator (normoxic cells) (10 μL, 100 μM solution in sterile PBS) for 20 minutes. Cells were then pelleted and resuspended in PBS (1.0 mL, no β-ME) twice. Cell pellets were then resuspended in PBS containing ^151/153EU beads (1/10 dilution of CyTOF® calibration beads, DVS Sciences, 1.0-2.5 mL depending on pellet size). The two cells samples were then combined (250 μL of each) and 250 μL of the resultant sample was injected onto a second-generation CyTOF® instrument for MC analysis. […]

In data set [1] the test system is NADPH:cytochrome P450 oxidoreductase (POR). The class given is cell-based. The settings on record: mutant HCT116, 10 μM, 3 hours. As to the method: FIGS. 10A-C show a) the mass cytometry histograms of wild-type HCT116 cells incubated with 10 μM of the exemplary compound, Telox-2, for 3 hours in atmosphere containing either 21% O2, 1% O2, 0.2% O2, or <0.02% O2); b) the mass cytometry histograms of mutant HCT116 cells overexpressing POR incubated with 10 μM Telox-2 for 3 hours in atmosphere containing either 21% O2, 1% O2, 0.2% O2 or <0.02% O2; and c) the mass cytometry histograms of mutant HCT116 cells unable to express POR incubated with 10 μM Telox-2 for 3 hours in atmosphere containing either 21% O2, 1% O2, 0.2% O2, or <0.02% O2.
To confirm the reductive metabolism of Telox-2 it investigated using mutant HCT116 cell lines that either overexpressed NADPH:cytochrome P450 oxidoreductase (POR) or had this enzyme knocked out (FIG. 10 part b).

Regarding `O=[N+]([O-])c1nccn1CCc1ccc[te]1` [Telox-2, 2-nitro-1-(2-(tellurophen-2-yl)ethyl)-1H-imidazole], the “signal-to-noise vs incubation time, constant exposure” value in the data set on HCT116 cells (HCT116, 10 μM, near-anoxic and moderately hypoxic vs normoxic control) is recorded as “enhanced as incubation time increases”. In addition, in the data set with HCT116 cells (HCT116, 1% O2), the “signal-to-noise under moderately hypoxic conditions vs near-anoxic” value was “significantly lower”. Moreover, the “loss of probe-protein conjugates after pulsed exposure” value in the data set on HCT116 cells (HCT116, 3 hours exposure then fresh media up to additional 21 hours) is given as “exponential-type decay”. The “optimal probe concentration to maximize signal-to-noise” value in the data set with HCT116 cells (HCT116, 3 hours, normoxic vs near-anoxic) was 10 µM. Further, in data set [1], the “labelling in POR-knockout cell line compared to wild type” value was “nearly identical to that in the wild type” and the “labelling in cell line overexpressing POR compared to wild type” value is on record as “greatly enhanced labelling”.
